ChEMBL document CHEMBL5726571, “5-hydroxytryptamine receptor 7 activity modulators and their method of use” (2017)

Biological target: 5-hydroxytryptamine receptor 7 (Homo sapiens, UniProt P34969)
Assay: Radiolabel Binding Assay: A stock concentration of 5 nM [3H]LSD (lysergic acid diethyl amide) is prepared in 50 mM Tris-HCl, 10 mM MgCl2, 1 mM EDTA, pH 7.4 (Assay Buffer). Aliquots (50 μl) of radioligand are dispensed into the wells of a 96-well plate containing 100 μl of Assay Buffer. Duplicate 50-μl aliquots of the compound of the disclosure test and chlorpromazine positive control reference compound serial dilutions are added.Membrane fractions of cells expressing recombinant 5HT7 receptors (50 μL) are dispensed into each well. The membranes are prepared from stably tranfected cell lines expressing 5HT7 receptors cultured on 10-cm plates by harvesting PBS-rinsed monolayers, resuspending and lysing in chilled, hypotonic 50 mM Tris-HCl, pH 7.4, centrifuging at 20,000×g, decanting the supernatant and storing at −80° C.; the membrane preparations are resuspended in 3 ml of chilled Assay Buffer and homogenized by several passages through a 26 gauge needle before using in the assay.

Chain of 5-hydroxytryptamine receptor 7 (P34969 whole entry): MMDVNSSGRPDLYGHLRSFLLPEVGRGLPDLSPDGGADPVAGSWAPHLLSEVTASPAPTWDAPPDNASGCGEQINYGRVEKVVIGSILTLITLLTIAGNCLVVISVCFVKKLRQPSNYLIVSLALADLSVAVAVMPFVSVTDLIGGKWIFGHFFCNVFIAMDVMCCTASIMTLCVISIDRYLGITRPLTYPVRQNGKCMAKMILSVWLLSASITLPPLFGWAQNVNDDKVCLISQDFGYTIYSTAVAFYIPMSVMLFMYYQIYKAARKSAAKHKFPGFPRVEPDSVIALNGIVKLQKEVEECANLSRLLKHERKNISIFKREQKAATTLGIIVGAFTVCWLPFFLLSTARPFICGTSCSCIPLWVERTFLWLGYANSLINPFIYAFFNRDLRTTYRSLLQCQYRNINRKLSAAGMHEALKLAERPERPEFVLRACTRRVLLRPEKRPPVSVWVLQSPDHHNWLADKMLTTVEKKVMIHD

Row | SMILES | IC50 [nM]
1 | CCC1(CC)CC(CCN2CCN(c3ccccc3)CC2)OC1=O (stereo not drawn) | 21
2 | O=C1OC(CCN2CCN(c3ccccn3)CC2)CC12CCCCC2 (stereo not drawn) | 44
3 | COc1ccccc1N1CCN(CCC2CC3(CCCCC3)C(=O)O2)CC1 (stereo not drawn) | 72
4 | O=C1OC(CCN2CCN(c3ccccc3)CC2)CC12CCCCC2 (stereo not drawn) | 33
5 | Cc1ccc(N2CCN(CCC3CC(c4ccccc4)(c4ccccc4)C(=O)O3)CC2)cc1 (stereo not drawn) | 145
6 | CCC1(CC)CC(CCN2CCN(c3ccc(N)cc3)CC2)OC1=O (stereo not drawn) | 471
7 | CCC1(CC)CC(CCN2CCN(c3ccc(C(O)(c4ccccc4)c4ccccc4)cc3)CC2)OC1=O (stereo not drawn) | 3160
8 | CCC1(CC)CC(CCN2CCN(c3c(C)cccc3C)CC2)OC1=O (stereo not drawn) | 1380
9 | CCC1(CC)CC(CCN2CCN(c3cccc(OC)c3)CC2)OC1=O (stereo not drawn) | 165
10 | CCC1(CC)CC(CCN2CCN(c3ccc(C)cc3C)CC2)OC1=O (stereo not drawn) | 363
11 | CCC1(CC)CC(CCN2CCN(c3cccc(O)c3)CC2)OC1=O (stereo not drawn) | 324
12 | CCC1(CC)CC(CCN2CCN(c3ccc(O)cc3)CC2)OC1=O (stereo not drawn) | 89
13 | Cc1ccc(N2CCN(CCCC3CC(c4ccccc4)(c4ccccc4)C(=O)O3)CC2)cc1 (stereo not drawn) | 146
14 | CCC1(CC)CC(CCN2CCN(c3ccc([N+](=O)[O-])cc3)CC2)OC1=O (stereo not drawn) | 54

The remaining compounds from weak to strong by IC50, led by results:

Row | IC50 [nM] | SMILES
15 | 3760 | CCC1(CC)CC(CCN2CCN(C3CCCCC3)CC2)OC1=O (stereo not drawn)
16 | 1920 | CC(C)(C)c1ccccc1N1CCN(CCC2CC3(CCCC3)C(=O)O2)CC1 (stereo not drawn)
17 | 1520 | N#Cc1ccc(N2CCN(CCC3CC4(CCCCC4)C(=O)O3)CC2)nc1 (stereo not drawn)
18 | 749 | O=C1OC(CCN2CCN(c3cccnc3)CC2)CC12CCCCC2 (stereo not drawn)
19 | 254 | O=C1OC(CCN2CCN(c3ccc(C(F)(F)F)cn3)CC2)CC12CCCCC2 (stereo not drawn)
20 | 183 | O=C1OC(CCN2CCN(c3ccc(C(F)(F)F)cc3)CC2)CC12CCCCC2 (stereo not drawn)
21 | 156 | CCC1(CC)CC(CCN2CCN(c3ccccc3O)CC2)OC1=O (stereo not drawn)
22 | 134 | CCC1(CC)CC(CCN2CCN(c3ccc(C#N)cc3)CC2)OC1=O (stereo not drawn)
23 | 118 | CCC1(CC)CC(CCN2CCN(c3ccccc3OC)CC2)OC1=O (stereo not drawn)
24 | 104 | CCC1(CC)CC(CCN2CCN(c3ccccc3C)CC2)OC1=O (stereo not drawn)
25 | 83 | CCC1(CC)CC(CCN2CCN(C(c3ccccc3)c3ccccc3)CC2)OC1=O (stereo not drawn)
26 | 56 | COc1cccc(N2CCN(CCC3CC4(CCCCC4)C(=O)O3)CC2)c1 (stereo not drawn)
27 | 24 | CC(C)c1ccccc1N1CCN(CCC2CC3(CCCC3)C(=O)O2)CC1 (stereo not drawn)
28 | 13 | CCC1(CC)CC(CCN2CCc3ccccc3C2)OC1=O (stereo not drawn)
